Key:
[1] = target: Human PDE10A1 (Homo sapiens, UniProt Q9Y233); assay: hPDE10A1 enzyme inhibition ([3H]-cAMP hydrolysis, scintillation); assay type: biochemical; conditions: Human PDE10A1, [3H]-cAMP substrate; read-out: hPDE10A1 IC50 Band
Description: hPDE10A1 Enzyme Activity: 50 μl samples of serially diluted Human PDE10A1 enzyme were incubated with 50 μl of [^3H]-cAMP for 20 minutes (at 37° C.). Reactions were carried out in Greiner 96 deep well 1 ml master-block. The enzyme was diluted in 20 mM Tris HCl pH7.4 and [^3H]-cAMP was diluted in 10 mM MgCl2, 40 mM Tris.HCl pH 7.4. The reaction was terminated by denaturing the PDE enzyme (at 70° C.) after which [^3H]-5′-AMP was converted to [^3H]-adenosine by adding 25 μl snake venom nucleotidase and incubating for 10 minutes (at 37° C.). Adenosine, being neutral, was separated from charged cAMP or AMP by the addition of 200 μl Dowex resin. Samples were shaken for 20 minutes then centrifuged for 3 minutes at 2,500 r.p.m. 50 μl of supernatant was removed and added to 200 μl of MicroScint-20 in white plates (Greiner 96-well Optiplate) and shaken for 30 minutes before reading on Perkin Elmer TopCount Scintillation Counter.
hPDE10A1 Enzyme Inhibition: To check inhibition profile 11 μl of serially diluted inhibitor was added to 50 μl of [^3H]-cAMP and 50 ul of diluted Human PDE10A1 and assay was carried out as in the enzyme activity assay. Data was analysed using Prism software (GraphPad Inc).

[2] = rats; cited from earlier work

Human PDE10A1, sequence (Q9Y233 1-779 isoform Q9Y233-1): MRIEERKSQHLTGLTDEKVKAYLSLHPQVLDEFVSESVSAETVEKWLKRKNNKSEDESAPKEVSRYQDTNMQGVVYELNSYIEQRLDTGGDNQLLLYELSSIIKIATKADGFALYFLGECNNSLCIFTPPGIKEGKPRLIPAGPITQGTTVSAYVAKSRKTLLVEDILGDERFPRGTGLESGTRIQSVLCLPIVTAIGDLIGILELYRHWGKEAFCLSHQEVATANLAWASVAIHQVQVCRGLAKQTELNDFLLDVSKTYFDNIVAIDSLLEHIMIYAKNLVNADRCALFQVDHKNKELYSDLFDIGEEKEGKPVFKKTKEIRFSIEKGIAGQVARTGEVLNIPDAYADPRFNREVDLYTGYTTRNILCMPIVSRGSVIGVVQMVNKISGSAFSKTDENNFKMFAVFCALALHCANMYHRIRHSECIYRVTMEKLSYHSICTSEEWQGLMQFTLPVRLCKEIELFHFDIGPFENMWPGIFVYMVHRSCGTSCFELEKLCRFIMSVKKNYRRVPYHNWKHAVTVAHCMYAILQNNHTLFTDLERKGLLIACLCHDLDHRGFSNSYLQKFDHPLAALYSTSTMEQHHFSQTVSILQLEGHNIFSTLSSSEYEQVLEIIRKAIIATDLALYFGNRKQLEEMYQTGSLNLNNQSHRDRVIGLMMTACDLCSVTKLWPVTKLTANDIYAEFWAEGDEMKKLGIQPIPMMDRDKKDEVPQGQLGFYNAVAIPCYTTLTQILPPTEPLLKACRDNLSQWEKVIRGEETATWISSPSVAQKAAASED

SMILES	IC50 [1]	other results
CC1(C)OC(c2ccc(C#N)cc2)=C(c2ccc(OCc3cn4ccccc4n3)cc2)C1=O [4-(3-(4-(imidazo[1,2-a]pyridin-2-ylmethoxy)phenyl)-5,5-dimethyl-4-oxo-4,5-dihydrofuran-2-yl)benzonitrile]	≤ 10 nM	–
COc1ccc(C2=C(c3ccc(OCc4ncc(C)cc4C)cc3)C(=O)C(C)(C)O2)cc1 [4-(4-((3,5-dimethylpyridin-2-yl)methoxy)phenyl)-5-(4-methoxyphenyl)-2,2-dimethylfuran-3(2H)-one]	≤ 10 nM	–
COc1ccc(C2=C(c3ccc(OCc4nc5ccccn5c4Cl)cc3)C(=O)C(C)(C)O2)cc1 [4-(4-((3-chloroimidazo[1,2-a]pyridin-2-yl)methoxy)phenyl)-5-(4-methoxyphenyl)-2,2-dimethylfuran-3(2H)-one]	≤ 10 nM	–
COc1ccc(C2=C(c3ccc(OCc4cn5cc(Cl)ccc5n4)cc3)C(=O)C(C)(C)O2)cc1 [4-(4-((6-Chloroimidazo[1,2-a]pyridin-2-yl)methoxy)phenyl)-5-(4-methoxyphenyl)-2,2-dimethylfuran-3(2H)-one]	≤ 10 nM	–
COc1ccc(C2=C(c3ccc(OCc4cn5nc(Cl)ccc5n4)cc3)C(=O)C(C)(C)O2)cc1 [4-(4-((6-chloroimidazo[1,2-b]pyridazin-2-yl)methoxy)phenyl)-5-(4-methoxyphenyl)-2,2-dimethylfuran-3(2H)-one]	10 to 50 nM	–
COc1ccc(C2=C(c3ccc(OCc4cn5ccccc5n4)cc3)C(=O)C(C)(C)O2)cc1 [4-(4-(imidazo[1,2-a]pyridin-2-ylmethoxy)phenyl)-5-(4-methoxyphenyl)-2,2-dimethylfuran-3(2H)-one]	≤ 10 nM	–
COc1ccc(C2=C(c3ccc(OCc4cn5ncccc5n4)cc3)C(=O)C(C)(C)O2)cc1 [4-(4-(imidazo[1,2-b]pyridazin-2-ylmethoxy)phenyl)-5-(4-methoxyphenyl)-2,2-dimethylfuran-3(2H)-one]	≤ 10 nM	–
COc1ccc(C2=C(c3ccc(OCc4ccc5nccn5n4)cc3)C(=O)C(C)(C)O2)cc1 [4-(4-(imidazo[1,2-b]pyridazin-6-ylmethoxy)phenyl)-5-(4-methoxyphenyl)-2,2-dimethylfuran-3(2H)-one]	10 to 50 nM	–
Cc1ccc(COc2ccc(C3=C(c4ccc(C#N)cc4)OC(C)(C)C3=O)cc2)nc1 [4-(5,5-dimethyl-3-(4-((5-methylpyridin-2-yl)methoxy)phenyl)-4-oxo-4,5-dihydrofuran-2-yl)benzonitrile]	≤ 10 nM	–
COc1ccc(C2=C(c3ccc(OCc4nc5ccccn5c4C)cc3)C(=O)C(C)(C)O2)cc1 [5-(4-Methoxyphenyl)-2,2-dimethyl-4-(4-((3-methylimidazo[1,2-a]pyridin-2-yl)methoxy)phenyl)furan-3(2H)-one]	10 to 50 nM	–
COc1ccc(C2=C(c3ccc(OCc4cn5c(C)cccc5n4)cc3)C(=O)C(C)(C)O2)cc1 [5-(4-Methoxyphenyl)-2,2-dimethyl-4-(4-((5-methylimidazo[1,2-a]pyridin-2-yl)methoxy)phenyl)furan-3(2H)-one]	≤ 10 nM	–
COc1ccc(C2=C(c3ccc(OCc4ccc(C)cn4)cc3)C(=O)C(C)(C)O2)cc1 [5-(4-methoxyphenyl)-2,2-dimethyl-4-(4-((5-methylpyridin-2-yl)methoxy)phenyl)furan-3(2H)-one]	≤ 10 nM	–
COc1ccc(Cc2nccc3cc(OC)c(OC)cc23)cc1OC [papaverine]	–	apomorphine induced stereotypes [2]: reduces; haloperidol induced catalepsy [2]: increases; rat brain dopamine levels [2]: reduces

Source: patent US8343973B2, “Phenoxymethyl heterocyclic compounds” (EnVivo Pharmaceuticals, Inc., priority 2009, dated 2013)
